Data from patent publication US9024017B2, “Octahydro-cyclopentapyrrolyl antagonists of CCR2” (Janssen Pharmaceutica NV, priority 2012, dated 2015).

Molecular target: T1, CCR2 (Homo sapiens, UniProt P41597)
T1 construct: host or cells: THP-1 (human monocytic cell line)
Assay: MCP-1 Receptor Binding Assay in THP-1 Cells
Settings: read-out: MCP1B_v3 IC50
Procedure: Compounds of the invention were subjected to various representative biological tests. […] MCP-1 Receptor Binding Assay in THP-1 Cells Human monocytic cell line THP-1 cells were obtained from American Type Culture Collection (Manassas, Va., USA). The THP-1 cells were grown in RPMI-1640 (RPMI: Roswell Park Memorial Institute Medium-cell culture growth media) supplemented with 10% fetal bovine serum in a humidified 5% CO2 atmosphere at 37° C. The cell density was maintained between […].
THP-1 (cells were incubated with 0.5 nM ^125I labeled MCP-1 (Perkin-Elmer Life Sciences, Inc. Boston, Mass.) in the presence of varying concentrations of either unlabeled MCP-1 (R & D Systems, Minneapolis, Minn.) or test compound for 2 hours at 30° C. in a 96 well plate. Cells were then harvested onto a filter plate, dried, and 20 μL of Microscint 20 was added to each well. Plates were counted in a TopCount NXT, Microplate Scintillation & Luminescence Counter (Perkin-Elmer Life Sciences, Inc. Boston, Mass.). Blank values (buffer only) were subtracted from all values and drug treated values were compared to vehicle treated values. 1 μM cold MCP-1 was used for nonspecific binding.

T1 sequence (P41597 whole entry): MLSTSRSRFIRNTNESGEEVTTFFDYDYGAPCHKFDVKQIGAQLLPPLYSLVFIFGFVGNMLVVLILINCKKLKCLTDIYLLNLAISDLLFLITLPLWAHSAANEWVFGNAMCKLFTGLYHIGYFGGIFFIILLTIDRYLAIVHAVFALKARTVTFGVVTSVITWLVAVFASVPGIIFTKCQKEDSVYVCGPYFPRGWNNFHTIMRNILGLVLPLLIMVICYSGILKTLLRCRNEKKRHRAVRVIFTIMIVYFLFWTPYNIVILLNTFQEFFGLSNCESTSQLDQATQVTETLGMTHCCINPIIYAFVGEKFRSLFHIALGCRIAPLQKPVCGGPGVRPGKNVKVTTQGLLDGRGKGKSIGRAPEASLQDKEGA

Row | IC50 [nM] | Compound
1 | 50 | COC(=O)N1C[C@@H]2C[C@@H](NC3CCOCC3OC)C[C@]2(C(=O)N2CCc3ncc(C(F)(F)F)cc3C2)C1 (relative stereo) [Example 34, (3aR,5R,6aR)-Methyl 5-(((3S*,4S*)-3-methoxytetrahydro-2H-pyran-4-yl)amino)-3a-(3-(trifluoromethyl)-5,6,7,8-tetrahydro-1,6-naphthyridine-6-carbonyl)hexahydrocyclopenta[c]pyrrole-2(1H)-carboxylate]
2 | 60 | CCCOC(=O)N1C[C@@H]2C[C@@H](NC3CCOCC3OC)C[C@]2(C(=O)N2CCc3ncc(C(F)(F)F)cc3C2)C1 (relative stereo) [Example 35, (3aR,5R,6aR)-Propyl 5-(((3S*,4S*)-3-methoxytetrahydro-2H-pyran-4-yl)amino)-3a-(3-(trifluoromethyl)-5,6,7,8-tetrahydro-1,6-naphthyridine-6-carbonyl)hexahydro-cyclopenta[c]pyrrole-2(1H)-carboxylate]
3 | 560 | COC1COCCC1N[C@@H]1C[C@H]2CN(C(=O)OCC(C)(C)C)C[C@@]2(C(=O)N2CCc3ncc(C(F)(F)F)cc3C2)C1 (relative stereo) [Example 36, (3aR,5R,6aR)-Neopentyl 5-(((3S*,4S*)-3-methoxytetrahydro-2H-pyran-4-yl)amino)-3a-(3-(trifluoromethyl)-5,6,7,8-tetrahydro-1,6-naphthyridine-6-carbonyl)hexahydro-cyclopenta[c]pyrrole-2(1H)-carboxylate]
4 | 40 | C=CCOC(=O)N1C[C@@H]2C[C@@H](NC3CCOCC3OC)C[C@]2(C(=O)N2CCc3ncc(C(F)(F)F)cc3C2)C1 (relative stereo) [Example 38, (3aR,5R,6aR)-Allyl 5-(((3S*,4S*)-3-methoxytetrahydro-2H-pyran-4-yl)amino)-3a-(3-(trifluoromethyl)-5,6,7,8-tetrahydro-1,6-naphthyridine-6-carbonyl)hexahydrocyclopenta[c]pyrrole-2(1H)-carboxylate]
5 | 10 | CCN(CC)CCOC(=O)N1C[C@@H]2C[C@@H](NC3CCOCC3OC)C[C@]2(C(=O)N2CCc3ccc(C(F)(F)F)cc3C2)C1 (relative stereo) [Example 41, (3aR,5R,6aR)-2-(Diethylamino)ethyl 5-(((3S*,4S*)-3-methoxytetrahydro-2H-pyran-4-yl)amino)-3a-(7-(trifluoromethyl)-1,2,3,4-tetrahydroisoquinoline-2-carbonyl)hexahydrocyclopenta[c]pyrrole-2(1H)-carboxylate]
6 | 30 | COC1COCCC1N[C@@H]1C[C@H]2CN(C(=O)OCCN3CCCC3)C[C@@]2(C(=O)N2CCc3ccc(C(F)(F)F)cc3C2)C1 (relative stereo) [Example 46, (3aR,5R,6aR)-2-(Pyrrolidin-1-yl)ethyl 5-(((3S*,4S*)-3-methoxytetrahydro-2H-pyran-4-yl)amino)-3a-(7-(trifluoromethyl)-1,2,3,4-tetrahydroisoquinoline-2-carbonyl)hexahydrocyclopenta[c]pyrrole-2(1H)-carboxylate]

Further lines, the compound ahead of its results:

Row | Compound | IC50 [nM]
7 | COC1COCCC1N[C@@H]1C[C@H]2CN(C(=S)NCc3ccccc3)C[C@@]2(C(=O)N2CCc3ncc(C(F)(F)F)cc3C2)C1 (relative stereo) [Example 26, (3aR,5R,6aR)-N-Benzyl-5-(((3S*,4S*)-3-methoxytetrahydro-2H-pyran-4-yl)amino)-3a-(3-(trifluoromethyl)-5,6,7,8-tetrahydro-1,6-naphthyridine-6-carbonyl)hexahydrocyclopenta-[c]pyrrole-2(1H)-carbothioamide] | 200
8 | CNC(=S)N1C[C@@H]2C[C@@H](NC3CCOCC3OC)C[C@]2(C(=O)N2CCc3ncc(C(F)(F)F)cc3C2)C1 (relative stereo) [Example 27, (3aR,5R,6aR)-5-(((3S*,4S*)-3-Methoxytetrahydro-2H-pyran-4-yl)amino)-N-methyl-3a-(3-(trifluoromethyl)-5,6,7,8-tetrahydro-1,6-naphthyridine-6-carbonyl)hexahydrocyclopenta[c]pyrrole-2(1H)-carbothioamide] | 30
9 | CNC(=S)N1C[C@@H]2C[C@@H](N(C(=S)NC)C3CCOCC3OC)C[C@]2(C(=O)N2CCc3ncc(C(F)(F)F)cc3C2)C1 (relative stereo) [Example 28, (3aR,5R,6aR)-5-(1-((3S*,4S*)-3-Methoxytetrahydro-2H-pyran-4-yl)-3-methylthioureido)-N-methyl-3a-(3-(trifluoromethyl)-5,6,7,8-tetrahydro-1,6-naphthyridine-6-carbonyl)hexahydrocyclopenta[c]pyrrole-2(1H)-carbothioamide] | 250
10 | COC1COCCC1N[C@@H]1C[C@H]2CN(C(=S)NCC(C)C)C[C@@]2(C(=O)N2CCc3ncc(C(F)(F)F)cc3C2)C1 (relative stereo) [Example 29, (3aR,5R,6aR)-N-Isobutyl-5-(((3S*,4S*)-3-methoxytetrahydro-2H-pyran-4-yl)amino)-3a-(3-(trifluoromethyl)-5,6,7,8-tetrahydro-1,6-naphthyridine-6-carbonyl)hexahydrocyclopenta[c]pyrrole-2(1H)-carbothioamide] | 30
11 | COC1COCCC1N(C(=S)NCC(C)C)[C@@H]1C[C@H]2CN(C(=S)NCC(C)C)C[C@@]2(C(=O)N2CCc3ncc(C(F)(F)F)cc3C2)C1 (relative stereo) [Example 30, (3aR,5R,6aR)-N-Isobutyl-5-((3S*,4S*)-3-isobutyl-1-(3-methoxytetrahydro-2H-pyran-4-yl)thioureido)-3a-(3-(trifluoromethyl)-5,6,7,8-tetrahydro-1,6-naphthyridine-6-carbonyl)hexahydrocyclopenta[c]pyrrole-2(1H)-carbothioamide] | 90
12 | COC1COCCC1N[C@@H]1C[C@H]2CN(C(=S)n3ccnc3)C[C@@]2(C(=O)N2CCc3ncc(C(F)(F)F)cc3C2)C1 (relative stereo) [Example 31, ((3aR,5R,6aR)-2-(1H-Imidazole-1-carbonothioyl)-5-(((3S*,4S*)-3-methoxytetrahydro-2H-pyran-4-yl)amino)octahydrocyclopenta[c]pyrrol-3a-yl)(3-(trifluoromethyl)-7,8-dihydro-1,6-naphthyridin-6(5H)-yl)methanone] | 80
13 | COC1COCCC1N[C@@H]1C[C@H]2CN(S(N)(=O)=O)C[C@@]2(C(=O)N2CCc3ncc(C(F)(F)F)cc3C2)C1 (relative stereo) [Example 32, (3aR,5R,6aR)-5-(((3S*,4S*)-3-Methoxytetrahydro-2H-pyran-4-yl)amino)-3a-(3-(trifluoromethyl)-5,6,7,8-tetrahydro-1,6-naphthyridine-6-carbonyl)hexahydrocyclopenta-[c]pyrrole-2(1H)-sulfonamide] | 130
14 | COC1COCCC1N[C@@H]1C[C@H]2CN(S(=O)(=O)NCc3ccccc3)C[C@@]2(C(=O)N2CCc3ncc(C(F)(F)F)cc3C2)C1 (relative stereo) [Example 33, (3aR,5R,6aR)-N-Benzyl-5-(((3S*,4S*)-3-methoxytetrahydro-2H-pyran-4-yl)amino)-3a-(3-(trifluoromethyl)-5,6,7,8-tetrahydro-1,6-naphthyridine-6-carbonyl)hexahydrocyclopenta[c]pyrrole-2(1H)-sulfonamide] | 410
15 | COC1COCCC1N[C@@H]1C[C@H]2CN(C(=O)Oc3ccccc3)C[C@@]2(C(=O)N2CCc3ncc(C(F)(F)F)cc3C2)C1 (relative stereo) [Example 37, (3aR,5R,6aR)-Phenyl 5-(((3S*,4S*)-3-methoxytetrahydro-2H-pyran-4-yl)amino)-3a-(3-(trifluoromethyl)-5,6,7,8-tetrahydro-1,6-naphthyridine-6-carbonyl)hexahydro-cyclopenta[c]pyrrole-2(1H)-carboxylate] | 150
16 | COC1COCCC1N[C@@H]1C[C@H]2CN(C(=O)OCCN3CCOCC3)C[C@@]2(C(=O)N2CCc3ncc(C(F)(F)F)cc3C2)C1 (relative stereo) [Example 39, (3aR,5R,6aR)-2-Morpholinoethyl 5-(((3S*,4S*)-3-methoxytetrahydro-2H-pyran-4-yl)amino)-3a-(3-(trifluoromethyl)-5,6,7,8-tetrahydro-1,6-naphthyridine-6-carbonyl)hexahydrocyclopenta[c]pyrrole-2(1H)-carboxylate] | 10
17 | COC1COCCC1N[C@@H]1C[C@H]2CN(C(=O)OCCC3CCOCC3)C[C@@]2(C(=O)N2CCc3ncc(C(F)(F)F)cc3C2)C1 (relative stereo) [Example 42, (3aR,5R,6aR)-2-(Tetrahydro-2H-pyran-4-yl)ethyl 5-(((3S*,4S*)-3-methoxytetrahydro-2H-pyran-4-yl)amino)-3a-(3-(trifluoromethyl)-5,6,7,8-tetrahydro-1,6-naphthyridine-6-carbonyl)hexahydrocyclopenta[c]pyrrole-2(1H)-carboxylate] | 30
18 | COC1COCCC1N[C@@H]1C[C@H]2CN(C(=O)OCCN3CCCC3)C[C@@]2(C(=O)N2CCc3ncc(C(F)(F)F)cc3C2)C1 (relative stereo) [Example 45, (3aR,5R,6aR)-2-(Pyrrolidin-1-yl)ethyl 5-(((3S*,4S*)-3-methoxytetrahydro-2H-pyran-4-yl)amino)-3a-(3-(trifluoromethyl)-5,6,7,8-tetrahydro-1,6-naphthyridine-6-carbonyl)hexahydrocyclopenta[c]pyrrole-2(1H)-carboxyl] | 70
